PMC11494653, “Teixobactin “Swapmers” with L Tail Stereochemistry Retain Antibiotic Activity” (The Journal of Organic Chemistry, 2024)
In brackets after ≈: the same amount, converted by molar mass. Positions of bridges follow the written chain, without caps; N, C: chain ends. Non-standard residues stand in square brackets, D forms with d. Residues, ends and D or L forms follow the SMILES beside them. Chains are numbered I, II in the order given. d(aIle) = CC[C@H](C)[C@@H](N)C(=O)O; NMeF = CN[C@@H](Cc1ccccc1)C(=O)O; dNMeF = CN[C@H](Cc1ccccc1)C(=O)O

What was measured:
Assay type in all cases: cell-based
[1] = test system: Escherichia coli ATCC 10798; test: microbe, parasite or virus in culture; conditions: ATCC 10798, 16 h
Excerpt: (§1) We determined the MIC values of these teixobactin swapmer prodrugs against the Gram-positive bacteria Bacillus subtilis, Staphylococcus epidermidis, methicillin-susceptible Staphylococcus aureus (MSSA), and methicillin-resistant Staphylococcus aureus (MRSA) in a broth microdilution assay as described previously.[9],[10] We used the antibiotic vancomycin as a positive control and the Gram-negative bacterium Escherichia coli as a negative control. The MIC values for Lys10-teixobactin 1, Lys10-teixobactin prodrug 2, Arg10-teixobactin 6, and Arg10-teixobactin prodrug 7 are shown in Table 1 for comparison with the swapmer analogues.
(§2) We performed minimum inhibitory concentration (MIC) assays as previously described.[9] A concise procedure is detailed below.
(§3) Stock solutions of teixobactin analogues were prepared gravimetrically by dissolving an appropriate amount of peptide in 20 mg/mL sterile DMSO. The stock solutions were stored at −20 °C for subsequent experiments.
(§4) Bacillus subtilis (ATCC 6051), Staphylococcus epidermidis (ATCC 14990), methicillin-susceptible Staphylococcus aureus (MSSA) (ATCC 29213), and Escherichia coli (ATCC 10798) were cultured from glycerol stocks in Mueller-Hinton broth containing 0.002% polysorbate 80 overnight in a shaking incubator at 37 °C. Methicillin-resistant Staphylococcus aureus (MRSA) (ATCC 700698) was cultured from a glycerol stock in brain hearth infusion broth containing 0.002% polysorbate 80 overnight in a shaking incubator at 37 °C. After overnight incubation, each culture was diluted with the appropriate media (containing 0.002% polysorbate 80) to 1 × 10^6 colony-forming units (CFU)/mL as previously described.[12],[15],[16] Briefly, we have previously determined the CFU/mL for each bacterium at OD600 = 0.075 for 200 μL of bacterial culture in a 96-well plate. The OD600 of each overnight culture was determined, and then each culture was diluted to OD600 = 0.075. Cultures were further diluted to achieve 1 × 10^6 CFU/mL solutions.
(§5) Aliquots of the 20 mg/mL peptide stock solutions were diluted to make a 64 μg/mL solution in Mueller-Hinton broth containing 0.002% polysorbate 80 and a 64 μg/mL solution in brain heart infusion broth containing 0.002% polysorbate 80. The solutions were mixed by pipetting to ensure homogeneity. A 200-μL aliquot of a 64 μg/mL solution was transferred to a 96-well plate. 2-fold serial dilutions were made with media containing 0.002% polysorbate 80 across the 96-well plate to achieve a final volume of 100 μL in each well (initial concentrations ranging from 64 to 0.0625 μg/mL). A 100-μL aliquot of a 1 × 10^6 CFU/mL bacterial solution was added to each well in the series, resulting in final bacterial concentrations of 5 × 10^5 CFU/mL in each well. As 100 μL of bacteria were added to each well, the concentration of peptide was also diluted 2-fold (final concentrations ranging from 32 μg/mL to 0.03125 μg/mL). Each plate was covered with a lid and incubated at 37 °C for 16 h. The optical density measurements were measured at 600 nm using a 96-well UV–vis plate reader (MultiSkan GO, Thermo Scientific). The MIC values were taken as the lowest concentration that had no bacterial growth. MIC assays for each compound were performed in triplicate to ensure reproducibility.

[2] = test system: Staphylococcus epidermidis ATCC 14990; test: microbe, parasite or virus in culture; conditions: ATCC 14990, 16 h
Excerpt: as §1, §2, §3, §4, §5

[3] = test system: Bacillus subtilis ATCC 6051; test: microbe, parasite or virus in culture; conditions: ATCC 6051, 16 h
Excerpt: as §1, §2, §3, §4, §5

[4] = test system: Staphylococcus aureus (MSSA) ATCC 29213; test: microbe, parasite or virus in culture; conditions: ATCC 29213, 16 h
Excerpt: as §1, §2, §3, §4, §5

[5] = test system: Staphylococcus aureus (MRSA) ATCC 700698; test: microbe, parasite or virus in culture; conditions: ATCC 700698, 16 h
Excerpt: as §1, §2, §3, §4, §5

[6] = test system: all bacteria tested; test: MIC broth microdilution assay, summary over all bacteria; conditions: concentration range tested up to 32 μg/mL
Excerpt: as §1, §2, §3
as §4, with “After overnight incubation, each culture was diluted with the appropriate media (containing 0.002% polysorbate 80) to 1 × 10^6 colony-forming units (CFU)/mL as previously described.[12],[15],[16]” left out, “Cultures were further diluted to achieve 1 × 10^6 CFU/mL solutions.” left out
Aliquots of the 20 mg/mL peptide stock solutions were diluted to make a 64 μg/mL solution in Mueller-Hinton broth containing 0.002% polysorbate 80 and a 64 μg/mL solution in brain heart infusion broth containing 0.002% polysorbate 80. […] The optical density measurements were measured at 600 nm using a 96-well UV–vis plate reader (MultiSkan GO, Thermo Scientific). […]

MIC Escherichia coli ATCC 10798 [1] [µg/mL]	MIC Staphylococcus epidermidis ATCC 14990 [2] [µg/mL]	MIC B. subtilis [3] [µg/mL]	MIC Bacillus subtilis ATCC 6051 [3] [µg/mL]	MIC Staphylococcus aureus (MSSA) ATCC 29213 [4] [µg/mL]	MIC Staphylococcus aureus (MRSA) ATCC 700698 [5] [µg/mL]	Structure (SMILES)	antibiotic activity in words against all bacteria tested [6]
>32	0.5 (≈ 0.402 µM)	≤ 0.0625	≤0.0313	2 (≈ 1.61 µM)	2 (≈ 1.61 µM)	CC[C@H](C)[C@H](NC(=O)[C@@H](Cc1ccccc1)NC)C(=O)N[C@@H](CO)C(=O)N[C@H](CCC(N)=O)C(=O)N[C@@H](C(=O)N[C@H](C(=O)N[C@@H](CO)C(=O)N[C@H]1C(=O)N[C@@H](C)C(=O)N[C@@H](CCCNC(=N)N)C(=O)N[C@@H]([C@@H](C)CC)C(=O)O[C@H]1C)[C@@H](C)CC)[C@@H](C)CC [compound 6, Arg10-teixobactin]	
>32	>32		≥32	>32	>32	CC[C@H](C)[C@H](NC(=O)[C@H](Cc1ccccc1)NC)C(=O)N[C@@H](CO)C(=O)N[C@H](C(=O)N[C@@H](CCC(N)=O)C(=O)N[C@H](C(=O)OC[C@H](N)C(=O)N[C@H]1C(=O)N[C@@H](C)C(=O)N[C@@H](CCCCN)C(=O)N[C@@H]([C@@H](C)CC)C(=O)O[C@H]1C)[C@@H](C)CC)[C@@H](C)CC [compound 4, N-Me-L-Phe1,Ile4,Gln5,[Ile6-O-Ser7],Lys10-teixobactin] (I: H-[NMeF]ISIQI / II: H-S[dT]AKI; ester I:C-II:1, II:2-II:C)	virtually inactive
>32	1 (≈ 0.822 µM)	≤ 0.0625	≤0.0313	2 (≈ 1.64 µM)	1 to 2	CC[C@H](C)[C@H](NC(=O)[C@@H](Cc1ccccc1)NC)C(=O)N[C@@H](CO)C(=O)N[C@H](CCC(N)=O)C(=O)N[C@@H](C(=O)N[C@H](C(=O)OC[C@H](N)C(=O)N[C@H]1C(=O)N[C@@H](C)C(=O)N[C@@H](CCCCN)C(=O)N[C@@H]([C@@H](C)CC)C(=O)O[C@H]1C)[C@@H](C)CC)[C@@H](C)CC [compound 2, [Ile6-O-Ser7],Lys10-teixobactin] (I: H-[dNMeF]IS[dQ][d(aIle)]I / II: H-S[dT]AKI; ester I:C-II:1, II:2-II:C)	
>32	0.5 (≈ 0.402 µM)	≤ 0.0625	0.0625 (≈ 0.0502 µM)	2 (≈ 1.61 µM)	1 (≈ 0.804 µM)	CC[C@H](C)[C@H](NC(=O)[C@@H](Cc1ccccc1)NC)C(=O)N[C@@H](CO)C(=O)N[C@H](CCC(N)=O)C(=O)N[C@@H](C(=O)N[C@H](C(=O)OC[C@H](N)C(=O)N[C@H]1C(=O)N[C@@H](C)C(=O)N[C@@H](CCCNC(=N)N)C(=O)N[C@@H]([C@@H](C)CC)C(=O)O[C@H]1C)[C@@H](C)CC)[C@@H](C)CC [compound 7, [Ile6-O-Ser7],Arg10-teixobactin] (I: H-[dNMeF]IS[dQ][d(aIle)]I / II: H-S[dT]ARI; ester I:C-II:1, II:2-II:C)	
